The source of these data is patent US7858790B2, “Modulators of muscarinic receptors” (Vertex Pharmaceuticals Incorporated, priority 2006, dated 2010).

One test deals with T1, M4 muscarinic receptor (Homo sapiens, UniProt P08173).
T1 construct: expressed in transfected cells; host or cells: CHO (M4-CHO recombinant cell line)
T1 sequence (P08173 1-479): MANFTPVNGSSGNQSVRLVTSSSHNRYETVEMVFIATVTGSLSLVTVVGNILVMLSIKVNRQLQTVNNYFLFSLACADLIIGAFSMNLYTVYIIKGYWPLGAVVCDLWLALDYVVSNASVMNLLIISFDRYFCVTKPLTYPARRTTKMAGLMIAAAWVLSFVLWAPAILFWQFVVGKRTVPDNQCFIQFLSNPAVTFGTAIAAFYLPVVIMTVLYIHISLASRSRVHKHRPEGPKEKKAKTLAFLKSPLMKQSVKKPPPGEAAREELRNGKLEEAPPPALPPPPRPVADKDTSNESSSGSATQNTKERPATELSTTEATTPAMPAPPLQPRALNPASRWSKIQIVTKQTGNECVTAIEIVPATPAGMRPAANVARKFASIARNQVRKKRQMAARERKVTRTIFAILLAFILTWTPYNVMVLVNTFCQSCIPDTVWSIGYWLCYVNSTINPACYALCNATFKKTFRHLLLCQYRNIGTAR
As to the kind of experiment: Functional mobilization of intracellular calcium (FLIPR) in CHO cells expressing M4 muscarinic receptor. To be noted: for M4 Activity: CHO cells expressing M4, calcium mobilization; for Emax: CHO, 100% efficacy is the maximum response obtained with the Carbachol control. The format is cell-based. The procedure, abridged:
(§1)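 CHO cells loaded with Fluo-3 or Calcium 3 dye in pH 7.4 bath buffer with 1 mM probenecid, 0.5% DMSO. Agonist mode: compound added directly; inhibition mode: 15 min pre-incubation, then carbachol at EC80 (or co-application). Fluorescence recorded 60 s on FLIPR; efficacy relative to carbachol maximum.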
(In general: Calcium assays in cells follow changes in intracellular calcium, usually with a dye or a luminescent sensor.)

For a further test, the target named is T2, M1 muscarinic receptor (Homo sapiens, UniProt P11229).
T2 construct: expressed in transfected cells; host or cells: CHO (M1-CHO recombinant cell line)
T2 sequence (P11229 1-460): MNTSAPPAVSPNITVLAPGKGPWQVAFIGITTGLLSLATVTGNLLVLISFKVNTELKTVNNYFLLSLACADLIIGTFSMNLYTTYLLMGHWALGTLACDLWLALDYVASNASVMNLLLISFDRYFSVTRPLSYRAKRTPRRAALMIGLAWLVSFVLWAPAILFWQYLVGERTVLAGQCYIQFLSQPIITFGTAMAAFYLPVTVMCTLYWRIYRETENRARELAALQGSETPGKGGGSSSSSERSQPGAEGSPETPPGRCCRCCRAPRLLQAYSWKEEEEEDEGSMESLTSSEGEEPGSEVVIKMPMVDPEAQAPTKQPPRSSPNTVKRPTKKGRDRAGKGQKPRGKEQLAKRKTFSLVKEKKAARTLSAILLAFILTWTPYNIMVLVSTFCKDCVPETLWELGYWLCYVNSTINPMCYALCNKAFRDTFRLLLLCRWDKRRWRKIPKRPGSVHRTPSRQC
As to the kind of experiment: Functional mobilization of intracellular calcium (FLIPR) in CHO cells expressing M1 muscarinic receptor. The format is cell-based. To be noted: for M1 Activity: CHO cells expressing M1, calcium mobilization; for Emax: CHO, 100% efficacy is the maximum response obtained with the Carbachol control. The procedure, abridged:
as §1

What is called Emax is the size of the effect at its maximum, as opposed to the concentration needed. For the compound `CCCOC(=O)N1CCC(N2CCC3(C=C(C(=O)NC(CC)CC)c4ccccc43)CC2)CC1` [compound 42], on M4 muscarinic receptor, the “M4 Activity” value is “+ (activity was measured to be greater than 10.0 μM)” and the maximal effect (Emax) was < 25%. Also, at M1 muscarinic receptor, the “M1 Activity” value is “+ (activity was measured to be greater than 10.0 μM)” and the Emax is < 25%.
Take `CCOC(=O)N1C2CCC1CC(N1CCC3(C=C(C(=O)NC(CC)CC)c4ccccc43)CC1)C2` (stereo not shown) [compound 75]: at M4 muscarinic receptor, the “M4 Activity” value was “+++ (activity was measured to be less than 2.0 μM)” and the Emax was 25 to 100%. In addition, on M1 muscarinic receptor, the “M1 Activity” value is “++ (activity was measured to be from 2.0 μM to 10.0 μM)” and the Emax is 25 to 100%.
In the case of `CCOC(=O)N1CCC(N2CCC3(C=C(C(=O)NC)c4ccccc43)CC2)CC1` [compound 65], on M4 muscarinic receptor, the “M4 Activity” value is on record as “+++ (activity was measured to be less than 2.0 μM)” and the Emax lay in the range of 25 to 100%. Also, on M1 muscarinic receptor, the “M1 Activity” value is listed as “+++ (activity was measured to be less than 2.0 μM)” and the Emax fell in the range of 25 to 100%.
For `CCOC(=O)C1=CC2(CCN(CCC(C)(C)C)CC2)c2ccccc21` [compound 62], at M4 muscarinic receptor, the “M4 Activity” value was “+++ (activity was measured to be less than 2.0 μM)” and the Emax is 25 to 100%. At M1 muscarinic receptor, the “M1 Activity” value is “+ (activity was measured to be greater than 10.0 μM)” and the Emax fell in the range of 25 to 100%.
For `CCC(CC)NC(=O)C1=CC2(CCN(C3CCCCC3)CC2)c2ccccc21` [compound 73], at M4 muscarinic receptor, the “M4 Activity” value is “++ (activity was measured to be from 2.0 μM to 10.0 μM)” and the Emax lay within 25 to 100%. At M1 muscarinic receptor, the “M1 Activity” value is “+ (activity was measured to be greater than 10.0 μM)” and the maximum response (Emax) was < 25%.
The corresponding values for `CCC(CC)NC(=O)C1=CC2(CCN(C3CCN(C(=O)C4CC4)CC3)CC2)c2ccccc21` [compound 45] are “+ (activity was measured to be greater than 10.0 μM)”, 25 to 100%, “+ (activity was measured to be greater than 10.0 μM)” and < 25%.
For the compound `CC(C)NC(=O)C1=CC2(CCN(CCC(C)(C)C)CC2)c2ccccc21` [compound 70], on M4 muscarinic receptor, the “M4 Activity” value is “+ (activity was measured to be greater than 10.0 μM)” and the maximum response (Emax) fell in the range of 25 to 100%. For the same compound, at M1 muscarinic receptor, the “M1 Activity” value is on record as “+ (activity was measured to be greater than 10.0 μM)” and the Emax is 25 to 100%.
`CC(C)(C)CCN1CCC2(C=C(C(=O)NC3CCCCC3)c3ccccc32)CC1` [compound 25]: at M4 muscarinic receptor, the “M4 Activity” value is recorded as “+ (activity was measured to be greater than 10.0 μM)” and the Emax is < 25%. Moreover, on M1 muscarinic receptor, the “M1 Activity” value is listed as “++ (activity was measured to be from 2.0 μM to 10.0 μM)” and the Emax lay in the range of 25 to 100%.
The corresponding values for `CN(C)C(=O)C1=CC2(CCN(CCC(C)(C)C)CC2)c2ccccc21` [compound 56] are “+++ (activity was measured to be less than 2.0 μM)”, 25 to 100%, “+ (activity was measured to be greater than 10.0 μM)” and < 25%.
Taken in the same sequence, the figures for `CCCC(C)NC(=O)C1=CC2(CCN(CC3CC4C=CC3C4)CC2)c2ccccc21` (stereo not shown) [compound 50] were “+++ (activity was measured to be less than 2.0 μM)”, 25 to 100%, “+ (activity was measured to be greater than 10.0 μM)” and < 25%.
Turning to `CC(C)(C)CCN1CCC2(C=C(C(=O)NC3CCCC3)c3ccccc32)CC1` [compound 77], on M4 muscarinic receptor, the “M4 Activity” value was “+ (activity was measured to be greater than 10.0 μM)” and the Emax was < 25%. For the same compound, on M1 muscarinic receptor, the “M1 Activity” value was “+ (activity was measured to be greater than 10.0 μM)” and the Emax lay in the range of 25 to 100%.
Consider `CCOC(=O)N1CCC(N2CCC3(CC=C(C(=O)N4CCCC4)c4ccccc43)CC2)CC1` [compound 43], for which, at M4 muscarinic receptor, the “M4 Activity” value is reported as “+++ (activity was measured to be less than 2.0 μM)” and the maximal response (Emax) lay within 25 to 100%. For the same compound, at M1 muscarinic receptor, the “M1 Activity” value is on record as “+++ (activity was measured to be less than 2.0 μM)” and the Emax was 25 to 100%.
For `CCC(CC)NC(=O)C1=CC2(CCN(CCCCSC)CC2)c2ccccc21` [compound 55], at M4 muscarinic receptor, the “M4 Activity” value is reported as “+ (activity was measured to be greater than 10.0 μM)” and the maximal effect (Emax) is < 25%. Besides, on M1 muscarinic receptor, the “M1 Activity” value is listed as “+ (activity was measured to be greater than 10.0 μM)” and the maximal effect (Emax) is < 25%.
For `CN(C)C(=O)C1=CC2(CCN(C3CCCCCC3)CC2)c2ccccc21` [compound 44], on M4 muscarinic receptor, the “M4 Activity” value is “+++ (activity was measured to be less than 2.0 μM)” and the Emax lay in the range of 25 to 100%. On M1 muscarinic receptor, the “M1 Activity” value was “+ (activity was measured to be greater than 10.0 μM)” and the Emax was in the range of 25 to 100%.
Regarding `CCC(CC)NC(=O)C1=CC2(CCN(CCC(C)C)CC2)c2ccccc21` [compound 40], at M4 muscarinic receptor, the “M4 Activity” value is “++ (activity was measured to be from 2.0 μM to 10.0 μM)” and the Emax fell in the range of 25 to 100%. Besides, at M1 muscarinic receptor, the “M1 Activity” value is reported as “+ (activity was measured to be greater than 10.0 μM)” and the Emax was < 25%.
The corresponding values for `CCC(CC)NC(=O)C1=CC2(CCN(C3CCN(C(=O)OC)CC3)CC2)c2ccccc21` [compound 71] are “+++ (activity was measured to be less than 2.0 μM)”, 25 to 100%, “+ (activity was measured to be greater than 10.0 μM)” and < 25%.
The corresponding values for `CCOC(=O)N1C2CCC1CC(N1CCC3(CC=C(C(=O)N4CCCC4)c4ccccc43)CC1)C2` (stereo not shown) [compound 5] are “+++ (activity was measured to be less than 2.0 μM)”, 25 to 100%, “+++ (activity was measured to be less than 2.0 μM)” and 25 to 100%.
The corresponding values for `CN(C)C(=O)C1=CCC2(CCN(CCC(C)(C)C)CC2)c2ccccc21` [compound 46] are “+++ (activity was measured to be less than 2.0 μM)”, 25 to 100%, “++ (activity was measured to be from 2.0 μM to 10.0 μM)” and 25 to 100%.
Take `N#CC1=CCC2(CCN(C3C[C@@H]4CC[C@@H]3C4)CC2)c2ccccc21` (stereo partly shown) [compound 35]: on M4 muscarinic receptor, the “M4 Activity” value is “++ (activity was measured to be from 2.0 μM to 10.0 μM)” and the maximal response (Emax) is < 25%. At M1 muscarinic receptor, the “M1 Activity” value is “+ (activity was measured to be greater than 10.0 μM)” and the Emax is < 25%.
In the case of `CNC(=O)C1=CC2(CCN(CCC3CCSCC3)CC2)c2ccccc21` [compound 9], on M4 muscarinic receptor, the “M4 Activity” value is “+ (activity was measured to be greater than 10.0 μM)” and the Emax was < 25%. Besides, on M1 muscarinic receptor, the “M1 Activity” value is “+ (activity was measured to be greater than 10.0 μM)” and the Emax was in the range of 25 to 100%.
With `CCOC(=O)N1CCC(N2CCC3(CC=C(C#N)c4ccccc43)CC2)CC1` [compound 63], on M4 muscarinic receptor, the “M4 Activity” value was “+++ (activity was measured to be less than 2.0 μM)” and the Emax fell in the range of 25 to 100%. In addition, on M1 muscarinic receptor, the “M1 Activity” value is given as “+++ (activity was measured to be less than 2.0 μM)” and the Emax fell in the range of 25 to 100%.
For `CC(C)(C)CCN1CCC2(CC=C(C(=O)N3CCCC3)c3ccccc32)CC1` [compound 11], on M4 muscarinic receptor, the “M4 Activity” value is recorded as “++ (activity was measured to be from 2.0 μM to 10.0 μM)” and the Emax is < 25%. Moreover, on M1 muscarinic receptor, the “M1 Activity” value is given as “++ (activity was measured to be from 2.0 μM to 10.0 μM)” and the Emax fell in the range of 25 to 100%.
